Data: US20250388568A1, “NLRP3 INHIBITORS” (Kodiak Sciences Inc., priority 2022, published 2025)
Where two headings read alike, the source gives them in different places.

Legend:
[1] = test system: IL-1β release in U937 cells after NLRP3 activation; assay: IC50 determination of IL-1β release inhibition in U937 cells; format: cell-based; conditions: Homo sapiens, read-out: IL-1β IC50 (nM) U937 cells
In short: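 PMA-differentiated U937 cells (90 h) were primed 5 h with 1 μg/mL LPS, pre-incubated 30 min with compound, then stimulated with nigericin for 1 h. Supernatant IL-1β was quantified by MSD electrochemiluminescence. IC50 was derived from IL-1β concentration, with duplicate wells per compound.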

[2] = test system: IL-1β release in THP-1-ASC-GFP cells after NLRP3 activation; assay: IC50 determination of IL-1β release inhibition in THP-1-ASC-GFP cells; format: cell-based; conditions: THP1-ASC-GFP, read-out: IL-1β IC50 (nM) THP1 cells
In short: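 THP-1-ASC-GFP cells were primed with 1 μg/mL LPS for 4 h, pretreated with compound for 30 min, then stimulated with nigericin plus compound for 1 h. Secreted IL-1β in supernatants was quantified by MSD electrochemiluminescence immunoassay. IC50 values were calculated from the measured IL-1β concentrations.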

[3] = U-937, PMA-differentiated U937 cells, LPS priming 5 h, nigericin, average of at least three experiments
[4] = THP-1-ASC-GFP cells, LPS priming 4 h, nigericin, average of at least three experiments

| SMILES | IC50 [1, 3] [nM] | IC50 [2, 4] [nM] | IC50 ([1]; U-937, 5 h) [nM] | IC50 ([2]; 4 h) [nM] |
| --- | --- | --- | --- | --- |
| O=C(Nc1c2c(cc3c1CCC3)CCC2)NS(=O)(=O)c1cc2c(o1)CCN(CCCO)C2 [Example 74, N-((1,2,3,5,6,7-hexahydro-s-indacen-4-yl)carbamoyl)-5-(3-hydroxypropyl)-4,5,6,7-tetrahydrofuro[3,2-c]pyridine-2-sulfonamide] | 5 to 50 | 5 to 50 | – | – |
| Cc1oc(S(=N)(=O)NC(=O)Nc2c3c(cc4c2CCC4)CCC3)cc1CN(C)CC1(O)CC1 (stereo not drawn) [Example 11, N-((1,2,3,5,6,7-hexahydro-s-indacen-4-yl)carbamoyl)-4-((((1-hydroxycyclopropyl)methyl)(methyl)amino)methyl)-5-methylfuran-2-sulfonimidamide] | 5 to 50 | < 5 | – | – |
| Cc1oc(S(=N)(=O)NC(=O)Nc2c3c(cc4c2CCC4)CCC3)cc1CNC(C)C (stereo not drawn) [Example 25, N-((1,2,3,5,6,7-hexahydro-s-indacen-4-yl)carbamoyl)-4-((isopropylamino)methyl)-5-methylfuran-2-sulfonimidamide] | – | – | < 5 | < 5 |
| Cc1oc(S(=N)(=O)NC(=O)Nc2c3c(c(F)c4c2CCC4)CCC3)cc1CN(C)CC1(CO)CCC1 (stereo not drawn) [Example 13, N-((8-fluoro-1,2,3,5,6,7-hexahydro-s-indacen-4-yl)carbamoyl)-4-((((1-(hydroxymethyl)cyclobutyl)methyl)(methyl)amino)methyl)-5-methylfuran-2-sulfonimidamide] | 5 to 50 | < 5 | – | – |
| Cc1oc(S(=O)(=O)NC(=O)Nc2c3c(c(F)c4c2CCC4)CCC3)cc1CN(C)CC1(O)CCCC1 [Example 37, N-((8-fluoro-1,2,3,5,6,7-hexahydro-s-indacen-4-yl)carbamoyl)-4-((((1-hydroxycyclopentyl)methyl)(methyl)amino)methyl)-5-methylfuran-2-sulfonamide] | 5 to 50 | < 5 | – | – |
| Cc1oc(S(=N)(=O)NC(=O)Nc2c3c(cc4c2CCC4)CCC3)cc1CN (stereo not drawn) [Example 24, 4-(aminomethyl)-N-((1,2,3,5,6,7-hexahydro-s-indacen-4-yl)carbamoyl)-5-methylfuran-2-sulfonimidamide] | 5 to 50 | < 5 | – | – |
| CC(C)n1nc(S(=N)(=O)NC(=O)Nc2c3c(cc4c2CCC4)CCC3)cc1CN1CCC[C@H]1CO (stereo partly drawn) [Example 21, N-((1,2,3,5,6,7-hexahydro-s-indacen-4-yl)carbamoyl)-5-(((S)-2-(hydroxymethyl)pyrrolidin-1-yl)methyl)-1-isopropyl-1H-pyrazole-3-sulfonimidamide] | < 5 | < 5 | – | – |
| Cc1oc(S(=N)(=O)NC(=O)Nc2c3c(cc4c2CCC4)CCC3)cc1CN(C)CC1(O)CCC1 (stereo not drawn) [Example 12, N-((1,2,3,5,6,7-hexahydro-s-indacen-4-yl)carbamoyl)-4-((((1-hydroxycyclobutyl)methyl)(methyl)amino)methyl)-5-methylfuran-2-sulfonimidamide] | < 5 | < 5 | – | – |

Further lines, with some results ahead:

| IC50 [1, 3] [nM] | IC50 [2, 4] [nM] | SMILES | IC50 ([1]; U-937, 5 h) [nM] | IC50 ([2]; 4 h) [nM] |
| --- | --- | --- | --- | --- |
| < 5 | < 5 | Cc1oc([S@](=N)(=O)NC(=O)Nc2c3c(c(F)c4c2CCC4)CCC3)cc1CNC(C)C (single isomer, unassigned) [Example 29] | – | – |
| < 5 | < 5 | Cc1oc(S(=O)(=O)NC(=O)Nc2c3c(c(F)c4c2CCC4)CCC3)cc1CN(C)CC1(O)CCC1 [Example 35, N-((8-fluoro-1,2,3,5,6,7-hexahydro-s-indacen-4-yl)carbamoyl)-4-((((1-hydroxycyclobutyl)methyl)(methyl)amino)methyl)-5-methylfuran-2-sulfonamide] | – | – |
| 5 to 50 | 5 to 50 | CC(O)c1cc(S(=O)(=O)NC(=O)Nc2c3c(c(F)c4c2CCC4)CCC3)oc1CN1CCNCC1 (stereo not drawn) [Example 72, N-((8-fluoro-1,2,3,5,6,7-hexahydro-s-indacen-4-yl)carbamoyl)-4-(1-hydroxyethyl)-5-(piperazin-1-ylmethyl)furan-2-sulfonamide] | – | – |
| 5 to 50 | < 5 | Cc1oc(S(=N)(=O)NC(=O)Nc2c3c(cc4c2CCC4)CCC3)cc1CN1CC[C@H](CO)C1 (stereo partly drawn) [Example 6, N-((1,2,3,5,6,7-hexahydro-s-indacen-4-yl)carbamoyl)-4-(((S)-3-(hydroxymethyl)pyrrolidin-1-yl)methyl)-5-methylfuran-2-sulfonimidamide] | – | – |
